# Measurements from patent US20190105389A1, “ADJUVANT SYSTEM FOR ORAL VACCINE ADMINISTRATION” (Vaxform LLC, priority 2012, published 2019).
# Tests used:
# [1] = Stability of CTL agonist linkage to aluminum particle on exposure to phosphate (FIG. 3A, 3B); format: physicochemical; details: exposed to 50 mM phosphate pH 7.4 for 30 minutes in the absence of antigen
# From the text: It is important to maintain the stability of the CTL agonist linkage to the aluminum particle upon exposure to body fluid following administration. Components of interstitial fluid such as phosphate, citrate, and protein have the potential to remove the linkage of the CTL agonist with aluminum-containing adjuvants. The resulting soluble CTL agonist may adversely impact the immune response. FIG. 3A illustrates that M1P as well as mannan maintain approximately 100% linkage with aluminum oxyhydroxide when exposed to 50 mM phosphate pH 7.4 for 30 minutes in the absence of antigen.
# [2] = Linkage (adsorption) of CTL receptor agonist to aluminum adjuvant (FIG. 2); format: physicochemical; details: aluminum oxyhydroxide
# From the text: However, monosaccharides can be modified by a chemical group including but not limited to fluoride, phosphate, sulfate, or carbonate group which permits a ligand exchange linkage of the molecule to the aluminum-containing adjuvant. Method for modifying saccharides by addition of fluoride, phosphate, sulfate, or carbonate groups is well known in the art (Cantos, et al. Biochem. J. (1993) 288: 155-160; Carbohydrate Chemistry, Royal Society of Chemistry, Ed. RD Guthrie (1968)). This is illustrated in FIG. 2 utilizing mannose as the CTL receptor agonist and aluminum oxyhydroxide. […] However, addition of a phosphate group at the 1 position of mannose (M1P) results in approximately 100% linkage of the CTL agonist to the aluminum adjuvant.
# Another method to the increased avidity of the saccharide for the aluminum adjuvant particle is polymerization. For instance the avidity of the saccharide for the aluminum adjuvant particle may be increased by increasing the size of the saccharide by polymerization to produce a polysaccharide. The increase avidity for the aluminum adjuvant is due to the larger number of interactions of a polysaccharide as compared to a monosaccharide to allow for the stable linkage of the polysaccharide agonist to the aluminum adjuvant particle. […]
Compound,Linkage with aluminum oxyhydroxide maintained [1],Linkage of the CTL agonist to the aluminum adjuvant [2]
"O=P(O)(O)OC1O[C@H](CO)[C@@H](O)[C@H](O)[C@@H]1O (stereo partly shown) [Formulation M1P, mannose-1-phosphate]",approximately 100%,approximately 100%
mannan,approximately 100%,approximately 100%
